# Experimental data as given in publication PMC11212140, “Molecular Bidents with Two Electrophilic Warheads as a New Pharmacological Modality” (ACS Central Science, 2024).
# Experiments:
# [1] = tested on: EGFR^L858R/C775S Ba/F3 cells; assay: Antiproliferation assay (CellTiter-Glo); assay type: cell-based; settings: vs EGFR^L858R Ba/F3
# Protocol: Figure S6 Dose-response curves for the indicated compounds in EGFRL858R, EGFRL858R/C797S, and EGFRL858R/C775S Ba/F3 cells following 72 h of treatment. Cell viability was assessed with CellTiter-Glo.
# Data are presented as the mean ± SEM (n = 4). Representative data from three independent experiments
# (§1) (1 picture or pasted object on this page, not shown here)
# For infection of Ba/F3 cells, 2.5 mL of viral supernatant and 8 μg/mL polybrene was added to 2.5 million cells per well in six-well plates. The plate was centrifuged at 2500 rpm for 90 minutes at 37 °C for the spin infection. Then, virus-containing medium was removed 48 hours later and successfully infected cells were selected with the addition of 1 μg/mL puromycin to the medium.
# After 3 days, cells were transferred into the fresh medium without IL-3 and puromycin. IL-3-independent transformed cells were maintained in RPMI medium 1640 supplemented with 10%
# FBS. Expression of EGFR was examined by Western blot.
# Immunoblotting and antibodies
# (§2) Cells were lysed in RIPA buffer (150 mM NaCl, 1.0% IGEPAL® CA-630, 0.5% sodium deoxycholate, 0.1% SDS, 50 mM Tris, pH 8.0) (Sigma, Cat# R0278) with protease inhibitor and phosphatase inhibitor (Roche). The protein concentrations were measured by BCA analysis (Thermo Fisher Scientific, Cat # PI23225). […]
# (§3) or IRDye 680RD goat anti-Mouse IgG (LICOR Biosciences , Cat # 926-68070) secondary antibodies at room temperature for 1 hour. The membranes were detected on Odyssey CLx system. […]
# treatment. Cell viability was determined by using CellTiter-Glo (Promega #G7571) according to the manufacturer’s instructions, measuring luminescence using an Envision plate-reader (PerkinElmer Inc.). […]
# After 6 hours treatment, cells were pelleted, washed with PBS once and lysed with IP lysis buffer (25mMTris-HCl pH 7.4, 150mM NaCl, 1 mM EDTA, 1% NP-40 and 5% glycerol) (Thermo Fisher Scientific, Cat#87788) containing protease/phosphatase inhibitor cocktail (Roche). The protein concentrations were measured by BCA analysis (Pierce). […]
# [2] = tested on: EGFR, ERK1/2, and Akt phosphorylation; assay: Immunoblot of EGFR signaling pathway in EGFR-mutated Ba/F3 cells; assay type: cell-based; settings: EGFR^L858R, EGFR^L858R/C797S and EGFR^L858R/C775S Ba/F3 cells, 6 h
# Protocol: Figure 5 ZNL-0056 covalently engages Cys775 and Cys797 in EGFR Ba/F3 cells. (A) The average IC50 values (mean ± S.D.) of the indicated compounds in EGFR^L858R Ba/F3, EGFR^L858R/C797S Ba/F3, and EGFR^L858R/C775S Ba/F3 cells after […] treatment. The graph was generated from three independent experiments, each performed with four replicates. (B) Immunoblot assessment of the effect of ZNL-0056 on the EGFR signaling pathway in EGFR^L858R Ba/F3, EGFR^L858R/C797S Ba/F3, and EGFR^L858R/C775S Ba/F3 cells after 6 h treatment. Representative data from two independent experiments are shown.
# For infection of Ba/F3 cells, 2.5 mL of viral supernatant and 8 μg/mL polybrene was added to 2.5 million cells per well in six-well plates. The plate was centrifuged at 2500 rpm for 90 minutes at 37 °C for the spin infection. […]
# as §2, §3
# [3] = molecular target: JAK3 (Homo sapiens, UniProt P52333); assay: Z'-LYTE biochemical assay; settings: read-out: IC50 (nM) against JAK3
# Excerpt: (§4) Table S2. Biochemical activities against a panel of kinase targets […]
# (§5) aIC50 (nM) against EGFR L858R, BTK, JAK3, ITK and BLK were obtained with Z’-LYTE biochemical assay. bIC50 (nM) against MEK5 was obtained with LanthaScreen Binding activity assay. c Kd (nM) of MKK7 were obtained from KdELECT assays (DiscoverX). […]
# as §1
# [4] = molecular target: EGFR L858R (Homo sapiens, UniProt P00533, L858R); assay: Z'-LYTE biochemical assay; settings: read-out: IC50 (nM) against EGFR L858R
# Excerpt: as §4, §5, §1
# [5] = molecular target: ITK (Homo sapiens, UniProt Q08881); assay: Z'-LYTE biochemical assay; settings: read-out: IC50 (nM) against ITK
# Excerpt: as §4, §5, §1
# [6] = molecular target: BTK (Homo sapiens, UniProt Q06187); assay: Z'-LYTE biochemical assay; settings: read-out: IC50 (nM) against BTK
# Excerpt: as §4, §5, §1
# [7] = molecular target: BLK (Homo sapiens, UniProt P51451); assay: Z'-LYTE biochemical assay; settings: read-out: IC50 (nM) against BLK
# Excerpt: as §4, §5, §1
# BLK, sequence (P51451 whole entry): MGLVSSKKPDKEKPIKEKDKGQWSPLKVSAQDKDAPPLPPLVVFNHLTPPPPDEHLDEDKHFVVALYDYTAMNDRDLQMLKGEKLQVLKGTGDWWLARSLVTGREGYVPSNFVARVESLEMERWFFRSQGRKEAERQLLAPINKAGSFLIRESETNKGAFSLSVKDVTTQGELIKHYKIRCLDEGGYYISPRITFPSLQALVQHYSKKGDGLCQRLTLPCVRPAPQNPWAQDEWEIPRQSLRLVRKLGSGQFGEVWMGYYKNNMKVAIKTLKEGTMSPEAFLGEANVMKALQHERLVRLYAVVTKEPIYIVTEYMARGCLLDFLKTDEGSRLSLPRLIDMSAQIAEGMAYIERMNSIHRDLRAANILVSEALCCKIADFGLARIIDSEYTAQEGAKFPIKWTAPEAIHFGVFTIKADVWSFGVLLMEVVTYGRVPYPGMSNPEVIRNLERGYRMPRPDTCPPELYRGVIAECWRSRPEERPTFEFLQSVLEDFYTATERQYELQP
# EGFR L858R, sequence (P00533 25-1210 L858R): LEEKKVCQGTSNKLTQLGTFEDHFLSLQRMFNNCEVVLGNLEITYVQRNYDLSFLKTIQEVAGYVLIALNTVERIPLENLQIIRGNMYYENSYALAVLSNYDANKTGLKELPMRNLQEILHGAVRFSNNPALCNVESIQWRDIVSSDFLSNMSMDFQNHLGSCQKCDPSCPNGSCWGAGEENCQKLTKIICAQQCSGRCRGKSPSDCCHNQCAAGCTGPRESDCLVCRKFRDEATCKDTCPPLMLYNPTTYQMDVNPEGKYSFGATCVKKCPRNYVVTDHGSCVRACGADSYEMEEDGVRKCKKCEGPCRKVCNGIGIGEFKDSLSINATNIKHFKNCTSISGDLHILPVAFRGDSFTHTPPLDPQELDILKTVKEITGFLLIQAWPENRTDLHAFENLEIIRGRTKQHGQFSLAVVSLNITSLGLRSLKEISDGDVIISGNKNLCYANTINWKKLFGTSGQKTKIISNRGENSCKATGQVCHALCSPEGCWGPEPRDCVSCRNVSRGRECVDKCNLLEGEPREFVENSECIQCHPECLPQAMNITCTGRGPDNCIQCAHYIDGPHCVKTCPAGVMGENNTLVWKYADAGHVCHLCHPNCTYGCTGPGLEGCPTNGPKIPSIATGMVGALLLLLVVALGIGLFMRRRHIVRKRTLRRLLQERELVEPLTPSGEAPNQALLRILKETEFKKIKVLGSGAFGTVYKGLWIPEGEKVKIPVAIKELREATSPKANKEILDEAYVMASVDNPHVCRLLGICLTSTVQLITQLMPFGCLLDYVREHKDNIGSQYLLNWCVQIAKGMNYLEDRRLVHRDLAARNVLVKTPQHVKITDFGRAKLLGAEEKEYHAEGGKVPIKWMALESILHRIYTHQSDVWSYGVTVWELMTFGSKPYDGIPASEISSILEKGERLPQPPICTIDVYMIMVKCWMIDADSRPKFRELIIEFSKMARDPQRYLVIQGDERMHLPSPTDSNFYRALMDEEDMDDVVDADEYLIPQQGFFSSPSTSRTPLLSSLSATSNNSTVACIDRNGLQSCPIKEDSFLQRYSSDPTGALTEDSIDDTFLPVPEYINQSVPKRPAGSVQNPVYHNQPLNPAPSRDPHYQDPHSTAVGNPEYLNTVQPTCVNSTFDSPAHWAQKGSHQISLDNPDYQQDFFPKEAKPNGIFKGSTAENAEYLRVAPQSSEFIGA
# ITK, sequence (Q08881 whole entry): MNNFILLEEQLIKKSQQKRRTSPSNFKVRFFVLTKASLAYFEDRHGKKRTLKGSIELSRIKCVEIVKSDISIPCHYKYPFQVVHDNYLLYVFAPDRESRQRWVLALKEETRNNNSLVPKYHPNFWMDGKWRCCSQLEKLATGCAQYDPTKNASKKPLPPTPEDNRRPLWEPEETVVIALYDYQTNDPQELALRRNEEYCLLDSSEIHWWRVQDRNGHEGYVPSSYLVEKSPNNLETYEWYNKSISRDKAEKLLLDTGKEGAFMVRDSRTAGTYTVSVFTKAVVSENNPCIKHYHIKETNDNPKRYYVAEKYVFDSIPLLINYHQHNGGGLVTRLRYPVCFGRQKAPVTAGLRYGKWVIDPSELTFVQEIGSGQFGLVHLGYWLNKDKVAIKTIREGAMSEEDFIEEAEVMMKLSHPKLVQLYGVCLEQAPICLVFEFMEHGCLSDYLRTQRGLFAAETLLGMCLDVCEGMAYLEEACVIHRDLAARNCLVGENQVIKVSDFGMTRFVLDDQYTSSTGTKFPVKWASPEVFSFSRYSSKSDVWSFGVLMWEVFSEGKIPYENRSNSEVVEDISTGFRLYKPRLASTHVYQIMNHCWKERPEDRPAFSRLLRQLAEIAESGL
# JAK3, sequence (P52333 whole entry): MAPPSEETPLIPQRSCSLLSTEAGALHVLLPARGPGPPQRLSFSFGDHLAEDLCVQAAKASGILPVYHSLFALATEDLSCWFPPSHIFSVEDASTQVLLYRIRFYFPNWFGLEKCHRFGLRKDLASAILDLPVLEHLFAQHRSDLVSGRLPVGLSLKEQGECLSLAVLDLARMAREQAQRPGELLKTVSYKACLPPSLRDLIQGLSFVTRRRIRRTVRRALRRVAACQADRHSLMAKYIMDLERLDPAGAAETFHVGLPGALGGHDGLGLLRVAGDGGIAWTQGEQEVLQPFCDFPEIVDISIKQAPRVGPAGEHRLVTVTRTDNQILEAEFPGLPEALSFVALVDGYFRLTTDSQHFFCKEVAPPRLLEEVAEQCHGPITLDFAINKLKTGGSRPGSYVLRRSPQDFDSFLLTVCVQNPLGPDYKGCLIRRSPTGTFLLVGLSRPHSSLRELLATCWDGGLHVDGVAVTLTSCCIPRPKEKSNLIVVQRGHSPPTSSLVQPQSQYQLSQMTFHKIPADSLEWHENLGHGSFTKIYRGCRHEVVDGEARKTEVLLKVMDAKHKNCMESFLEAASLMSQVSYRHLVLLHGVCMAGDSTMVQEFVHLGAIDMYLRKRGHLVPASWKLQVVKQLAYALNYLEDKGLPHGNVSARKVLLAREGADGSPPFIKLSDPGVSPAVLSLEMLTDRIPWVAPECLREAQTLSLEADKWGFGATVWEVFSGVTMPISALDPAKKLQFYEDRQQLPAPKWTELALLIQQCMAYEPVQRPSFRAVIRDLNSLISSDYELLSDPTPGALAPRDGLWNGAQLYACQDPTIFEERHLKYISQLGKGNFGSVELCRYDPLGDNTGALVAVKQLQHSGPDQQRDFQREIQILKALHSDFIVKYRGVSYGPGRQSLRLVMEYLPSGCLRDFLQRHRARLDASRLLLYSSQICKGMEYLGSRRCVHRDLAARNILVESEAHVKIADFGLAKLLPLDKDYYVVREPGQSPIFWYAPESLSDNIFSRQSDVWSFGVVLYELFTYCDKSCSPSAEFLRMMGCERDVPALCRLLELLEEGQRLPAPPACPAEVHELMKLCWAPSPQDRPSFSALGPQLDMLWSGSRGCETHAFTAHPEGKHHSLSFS
# BTK, sequence (Q06187 whole entry): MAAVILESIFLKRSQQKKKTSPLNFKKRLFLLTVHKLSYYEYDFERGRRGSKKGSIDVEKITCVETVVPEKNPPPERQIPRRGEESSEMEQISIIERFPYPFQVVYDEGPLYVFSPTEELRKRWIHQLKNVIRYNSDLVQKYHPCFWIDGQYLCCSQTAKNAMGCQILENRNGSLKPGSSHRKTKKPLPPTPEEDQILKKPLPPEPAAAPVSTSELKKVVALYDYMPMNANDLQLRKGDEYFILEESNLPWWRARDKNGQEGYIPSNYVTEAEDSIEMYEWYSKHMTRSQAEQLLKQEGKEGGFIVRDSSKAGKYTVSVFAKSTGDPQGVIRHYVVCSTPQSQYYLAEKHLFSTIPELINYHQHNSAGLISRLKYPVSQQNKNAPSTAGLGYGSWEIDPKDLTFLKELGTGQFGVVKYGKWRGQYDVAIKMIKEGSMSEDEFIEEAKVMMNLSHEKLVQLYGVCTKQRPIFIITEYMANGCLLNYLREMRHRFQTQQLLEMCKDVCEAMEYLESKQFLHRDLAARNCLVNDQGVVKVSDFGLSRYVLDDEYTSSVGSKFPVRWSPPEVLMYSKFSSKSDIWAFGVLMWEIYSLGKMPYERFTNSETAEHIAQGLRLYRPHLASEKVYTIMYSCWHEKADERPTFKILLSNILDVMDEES
smiles,measurement,setting,value
C=CC(=O)Nc1cc(C(=O)Nc2nc3cccc(C)c3n2[C@@H]2CCCCN(C(=O)C=C)C2)cs1 [ZNL-0056],potency loss (shift) in the EGFR^L858R/C775S mutant,[1],2 fold
same,"inhibition of EGFR, ERK1/2, and Akt phosphorylation",[2],significantly inhibited
same,IC50,[3],5.79 nM
same,IC50,[4],6.21 nM
same,IC50,[5],7.81 nM
same,IC50,[6],1.13 nM
same,IC50,[7],3.17 nM
